Test results published in US8975280B2, “Deoxynojirimycin and D-arabinitol analogs and methods of using” (The Chancellor, Masters and Scholars of The University of …, priority 2006, dated 2015).

Molecular target: T1, glucosidase II (Homo sapiens, UniProt Q14697)
T1 construct: endogenous in cells; host or cells: HL60 cells
T1 sequence (Q14697 29-944): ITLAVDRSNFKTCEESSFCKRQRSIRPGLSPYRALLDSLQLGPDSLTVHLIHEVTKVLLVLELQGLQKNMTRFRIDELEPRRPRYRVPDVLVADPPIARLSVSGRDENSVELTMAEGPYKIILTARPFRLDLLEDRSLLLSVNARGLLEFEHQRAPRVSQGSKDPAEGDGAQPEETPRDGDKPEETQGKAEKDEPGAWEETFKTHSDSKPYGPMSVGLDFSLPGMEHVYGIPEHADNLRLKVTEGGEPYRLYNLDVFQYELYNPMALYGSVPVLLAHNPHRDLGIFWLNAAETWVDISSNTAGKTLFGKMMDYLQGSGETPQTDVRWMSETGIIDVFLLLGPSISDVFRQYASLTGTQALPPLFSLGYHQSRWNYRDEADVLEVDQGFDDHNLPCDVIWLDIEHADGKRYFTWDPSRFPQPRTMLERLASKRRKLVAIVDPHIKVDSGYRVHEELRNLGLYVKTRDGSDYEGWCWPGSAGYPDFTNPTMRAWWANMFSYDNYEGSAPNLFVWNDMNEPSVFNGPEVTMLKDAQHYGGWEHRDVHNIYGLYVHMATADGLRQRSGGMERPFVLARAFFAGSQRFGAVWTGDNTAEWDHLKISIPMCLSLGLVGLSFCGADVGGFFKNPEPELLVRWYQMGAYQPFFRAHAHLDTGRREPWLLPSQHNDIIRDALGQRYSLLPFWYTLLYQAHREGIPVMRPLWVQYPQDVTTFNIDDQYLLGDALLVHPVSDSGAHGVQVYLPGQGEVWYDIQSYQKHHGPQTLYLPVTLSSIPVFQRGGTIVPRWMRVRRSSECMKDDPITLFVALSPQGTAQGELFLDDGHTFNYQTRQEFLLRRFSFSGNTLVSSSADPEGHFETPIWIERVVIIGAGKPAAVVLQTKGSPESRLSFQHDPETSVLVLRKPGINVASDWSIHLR
T1 sequence (P14314 15-528 partner): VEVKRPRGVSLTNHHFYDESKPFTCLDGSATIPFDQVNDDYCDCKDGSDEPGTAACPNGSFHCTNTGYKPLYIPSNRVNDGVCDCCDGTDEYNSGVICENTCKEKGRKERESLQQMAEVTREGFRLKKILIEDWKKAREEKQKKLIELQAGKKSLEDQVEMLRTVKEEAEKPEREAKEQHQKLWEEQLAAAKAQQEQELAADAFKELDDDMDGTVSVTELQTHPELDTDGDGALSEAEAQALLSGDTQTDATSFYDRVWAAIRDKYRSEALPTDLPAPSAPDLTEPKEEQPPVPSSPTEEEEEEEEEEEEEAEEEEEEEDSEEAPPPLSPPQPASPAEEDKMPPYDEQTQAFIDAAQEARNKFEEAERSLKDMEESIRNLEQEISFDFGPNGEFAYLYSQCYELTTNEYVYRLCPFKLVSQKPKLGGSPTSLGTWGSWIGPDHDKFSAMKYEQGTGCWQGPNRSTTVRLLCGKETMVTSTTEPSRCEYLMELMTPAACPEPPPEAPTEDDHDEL
Test: Inhibition of glucosidase II in HL60 cells, free oligosaccharide (G1M5N) analysis by NP-HPLC
Type: cell-based
Conditions: 24 h
Protocol: The effect of an ER-glucosidase inhibitor on cells was evaluated using an assay method by modifying known methods. (H. R. Mellor et al., Cellular Effects of Deoxynojirimycin Analogues: Inhibition of N-Linked Oligosaccharide Processing and Generation of Free Glucosylated Oligosaccharides, 381 Biochem. J. 867-875 (2004). The detection of free oligosaccharides following imino sugar treatment to generate misfolded protein that is degraded in the cytosol is an accurate measure of cell ER entry and inhibition of glycoprotein processing of α-glucosidases I and II by imino sugars.
Cells were cultured to high density (×10^7 cells/ml) prior to growth in fresh medium containing NB-DNJ at varying concentrations. The cells were seeded at a lower density so as to achieve a high density at the end of the incubation period. […] The conditions for extraction of FOS were determined to maximize recovery of FOS. […]
ConA-Sepharose purified 2-AA-labeled oligosaccharides were separated by NP-HPLC using a 4.6×250 mm TSKgel Amide-80 column (Anachem, Luton, UK) with slight modifications to known methods. (D. C. Neville, et al.) The chromatography system consisted of a Waters Alliance 2695 separations module and an in-line Waters 474 fluorescence detector set at an excitation wavelength of 360 nm and emission wavelength of 425 nm. […]

concentration at which glucosidase II is inhibited in cells: 1 to 10 µM
Compound: [N-]=[N+]=Nc1ccc(NCCCCCCN2C[C@H](O)[C@@H](O)[C@H](O)[C@H]2CO)c([N+](=O)[O-])c1 [NAP-DNJ, N—(N′-{4′azido-2′-nitrophenyl)-6-aminohexyl)-deoxynojirimycin]
